The values that follow come from BindingDB's records for PubMed 32771797 (Southern Medical University, 2020).

The experiment can be described thus: Inhibition of Severe acute respiratory syndrome coronavirus 2 MPro incubated for 24 hrs by plaque assay.

A word on the EC50: it is the midpoint of the concentration-response curve. High values mean a need for much substance, low ones an effect from little substance. Molecule `O=C[C@H](C[C@@H]1CCNC1=O)NC(=O)[C@H](Cc1cccc(F)c1)NC(=O)c1cc2ccccc2[nH]1` [med.21724, Compound 62] registered an EC50 of 720 nM.
